Measured values taken from patent publication US20250051323A1 (RICHTER GEDEON NYRT., priority 2021, published 2025).
pKi: −log10 of the molar value. Counter-ions that a name gives are not always drawn. Like-named read-outs stand apart in the source and are kept apart here.

Legend:
[1] = biological target: T1, human recombinant GABAA α5β3γ2 receptor (Homo sapiens (Human), UniProt P18507+P31644); test: Functional assay, QPatch automated whole-cell patch clamp, modulation of GABA-evoked current; assay type: cell-based; settings: read-out: hGABAA α5 efficacy (percentage modulation of GABA-evoked peak current)
T1 sequence (P31644 32-462): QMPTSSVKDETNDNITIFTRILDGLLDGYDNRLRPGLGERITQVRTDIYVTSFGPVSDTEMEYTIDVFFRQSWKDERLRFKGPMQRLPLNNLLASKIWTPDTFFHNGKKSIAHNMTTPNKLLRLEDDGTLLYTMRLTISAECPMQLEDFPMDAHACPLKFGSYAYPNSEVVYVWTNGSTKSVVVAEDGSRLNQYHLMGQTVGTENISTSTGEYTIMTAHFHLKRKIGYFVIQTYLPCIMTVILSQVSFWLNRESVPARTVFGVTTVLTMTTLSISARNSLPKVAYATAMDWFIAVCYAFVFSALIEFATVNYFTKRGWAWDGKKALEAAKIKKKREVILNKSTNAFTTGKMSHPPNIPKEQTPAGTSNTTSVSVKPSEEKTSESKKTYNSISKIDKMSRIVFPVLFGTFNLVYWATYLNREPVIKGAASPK
T1 sequence (P28472 26-473 partner): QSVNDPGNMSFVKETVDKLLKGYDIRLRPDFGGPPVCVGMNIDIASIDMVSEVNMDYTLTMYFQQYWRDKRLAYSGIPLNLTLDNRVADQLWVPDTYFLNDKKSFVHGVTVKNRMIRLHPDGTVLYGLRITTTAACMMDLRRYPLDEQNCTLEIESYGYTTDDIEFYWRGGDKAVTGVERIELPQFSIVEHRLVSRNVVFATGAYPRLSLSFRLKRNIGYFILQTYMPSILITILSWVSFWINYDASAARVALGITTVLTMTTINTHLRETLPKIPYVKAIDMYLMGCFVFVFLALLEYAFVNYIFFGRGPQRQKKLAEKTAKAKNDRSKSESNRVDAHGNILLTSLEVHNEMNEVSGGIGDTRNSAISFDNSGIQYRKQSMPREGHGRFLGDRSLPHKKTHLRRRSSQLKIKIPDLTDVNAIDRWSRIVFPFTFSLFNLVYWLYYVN
T1 sequence (P18507 40-475): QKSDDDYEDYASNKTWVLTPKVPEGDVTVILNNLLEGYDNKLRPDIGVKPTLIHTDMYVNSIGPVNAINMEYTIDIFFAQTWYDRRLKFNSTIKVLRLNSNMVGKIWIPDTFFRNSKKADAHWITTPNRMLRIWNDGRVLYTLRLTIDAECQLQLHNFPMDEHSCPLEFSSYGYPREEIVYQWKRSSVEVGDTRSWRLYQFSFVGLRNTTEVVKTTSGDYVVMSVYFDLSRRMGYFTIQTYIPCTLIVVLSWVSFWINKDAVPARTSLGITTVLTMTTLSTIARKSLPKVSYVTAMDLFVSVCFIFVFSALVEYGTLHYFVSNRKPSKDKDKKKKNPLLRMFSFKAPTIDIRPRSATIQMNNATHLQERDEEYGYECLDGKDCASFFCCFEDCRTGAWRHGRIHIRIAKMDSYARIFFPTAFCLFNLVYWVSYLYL
Description: Human HEK293 cell lines expressing GABAAα5β3γ2 receptors were used in functional assays using the QPatch automated patch clamp system.
HEK293 cell lines stably expressing human recombinant GABAA α5β3γ2 receptor subunits (Millipore, CYL3053) were cultured in DMEM supplemented with 10% FBS (Gibco), passed two times per week and plated on Petri dishes previously coated with poly-d-lysine.
Automated whole-cell patch clamp recordings were made from cells 2-4 days after plating.
Inward currents were evoked at a holding potential of −80 mV by 3-s-long applications of the control agonist GABA at 1 μM at 2-4-min intervals first in concentration-matched DMSO (0.1 or 0.3%) control solution for five times, then in the presence of the test compound for four times, finally in control solution again for three times (wash-out). At the end of the experiment 100 μM GABA was applied to saturate the GABA-response and to assess the efficacy of the control GABA application. Current signals were low-pass filtered at 100 Hz and recorded at a sampling rate of 1 kHz.
The percentage modulation was calculated from the comparison of GABA-evoked peak current amplitudes in the presence and absence of the test compound.

[2] = biological target: T1, human recombinant GABAA α5β3γ2 receptor; test: Binding assay, [3H]Ro151788 displacement on HEK cell membranes; settings: [3H]Ro151788 0.5 nM, 60 minutes at 4° C., Cheng-Prusoff; read-out: hGABAA α5 Ki
Description: The GABAA α5β3γ2 protein used for the receptor binding assay was derived from membranes produced from HEK cells (Millipore CYL3073) expressing the human recombinant GABAA α5β3γ2 receptor. Cells were stored and cultured in-house according to the instructions provided by the vendor (Millipore). Cell pellet was homogenized in 10 times modified Krebs Henseleit buffer (membrane preparation buffer): 20 mM Tris, 120 mM NaCl, 100 mM KCl, 25 mM CaCl2 and 25 mM MgCl2 pH=7.4 at 4° C. using Ultra Turrax (Janke&Kunkel) maximal speed for 15 seconds. The homogenate was centrifuged at 40,000 g for 30 minutes at 4° C. Supernatant was discarded and the resulting pellet was washed in membrane preparation buffer. Pellet was resuspended in membrane preparation buffer and aliquots of 1.4 mL ampules were stored at −70° C. until use.
Receptor binding assays were performed in 96-well format in deep-well plates. For each 96-well plate one ampule of membrane homogenate was thawed and diluted in binding buffer (50 mM Tris pH=7.4, 100 mM KCl) and 200 μL was dispensed into each well. Radioligand [^3H]Ro151788 (Perkin Elmer: NET757250UC) was prepared in binding buffer and added to each well in 50 μL volume to give final concentration of 0.5 nM. Test compounds in suitable concentration(s) were added in additional 50 μL. The final assay volume was 300 μL. Incubation was carried out for 60 minutes at 4° C. For non-specific binding 10 μM unlabeled diazepam was used. […] The plate was dried at 40° C. for an hour and 40 μL Microscint (Perkin Elmer) scintillation cocktail was added to each well. The plate was read in Microbeta (Perkin Elmer).
The specific radioligand binding (SB) was defined as the difference between total binding (Tot) and the non-specific binding (NSB). Results are expressed as a percent inhibition of specific binding obtained in the presence of compound of interest.
For IC50 and Ki determination a minimum of six drug concentrations in triplicate were used. […] Ki values (i.e., inhibition constants) were calculated using the Cheng-Prusoff equation Ki=IC5O/[1+(L/KD)], where [L] is the radioligand concentration and KD the affinity of the labelled ligand for receptor. KD was determined from the Saturation analyses.

[3] = test compound 1 μM, GABA 1 μM, holding potential −80 mV

## Cc1ccc(-n2nnc(C)c2COc2cc3c(cn2)CN(C2CCOC2)CC3)cn1 (racemic) [Example 29, 6-{[4-methyl-1-(6-methylpyridin-3-yl)-1H-1,2,3-triazol-5-yl]methoxy}-2-(oxolan-3-yl)-1,2,3,4-tetrahydro-2,7-naphthyridine]
[1]; [3]
  activation at 1 µM: 102%
[2]
  pKi: 7.53

## Cc1ccc(-n2nnc(C)c2COc2cc3c(cn2)CN([C@@H]2CCOC2)CC3)cn1 (single isomer, unassigned) [Example 38, 6-{[4-methyl-1-(6-methylpyridin-3-yl)-1H-1,2,3-triazol-5-yl]methoxy}-2-[(3S)-oxolan-3-yl]-1,2,3,4-tetrahydro-2,7-naphthyridine or enantiomer, tartarate salt]
[2]
  pKi: 7.68

## Cc1ccc(-n2nnc(C)c2COc2cc3c(cn2)CN([C@H]2CCOC2)CC3)cn1 (single isomer, unassigned) [Example 39, 6-{[4-methyl-1-(6-methylpyridin-3-yl)-1H-1,2,3-triazol-5-yl]methoxy}-2-[(3R)-oxolan-3-yl]-1,2,3,4-tetrahydro-2,7-naphthyridine or enantiomer, tartarate salt]
[2]
  pKi: 7.67

## Cc1ccc(-c2noc(C)c2COc2cc3c(cn2)CNCC3)cn1 [Example 1, 6-{[5-methyl-3-(6-methylpyridin-3-yl)-1,2-oxazol-4-yl]methoxy}-1,2,3,4-tetrahydro-2,7-naphthyridine trifluoroacetic acid salt]
[1]
  activation at 1 µM: 155%
[2]
  pKi: 8.41

## Cc1onc(-c2ccc(C(F)(F)F)nc2)c1COc1cc2c(cn1)CNCC2 [Example 2, 6-({5-methyl-3-[6-(trifluoromethyl)pyridin-3-yl]-1,2-oxazol-4-yl}methoxy)-1,2,3,4-tetrahydro-2,7-naphthyridine trifluoroacetic acid salt]
[1]
  activation at 1 µM: 100%
[2]
  pKi: 7.43

## Cc1ccc(-c2noc(C)c2COc2cc3c(cn2)CN(C)CC3)cn1 [Example 3, 2-methyl-6-{[5-methyl-3-(6-methylpyridin-3-yl)-1,2-oxazol-4-yl]methoxy}-1,2,3,4-tetrahydro-2,7-naphthyridine]
[2]
  pKi: 8.38

## Cc1ccc(-c2noc(C)c2COc2cc3c(cn2)CN(CC2CCC2)CC3)cn1 [Example 5, 2-(cyclobutylmethyl)-6-{[5-methyl-3-(6-methylpyridin-3-yl)-1,2-oxazol-4-yl]methoxy}-1,2,3,4-tetrahydro-2,7-naphthyridine]
[2]
  pKi: 8.13

## Cc1ccc(-c2noc(C)c2COc2cc3c(cn2)CN(C2CCCC2)CC3)cn1 [Example 6, 2-cyclopentyl-6-{[5-methyl-3-(6-methylpyridin-3-yl)-1,2-oxazol-4-yl]methoxy}-1,2,3,4-tetrahydro-2,7-naphthyridine]
[2]
  pKi: 8.08

## Cc1onc(-c2ccc(C(F)(F)F)nc2)c1COc1cc2c(cn1)CN(C1CCOCC1)CC2 [Example 7, 6-({5-methyl-3-[6-(trifluoromethyl)pyridin-3-yl]-1,2-oxazol-4-yl}methoxy)-2-(oxan-4-yl)-1,2,3,4-tetrahydro-2,7-naphthyridine]
[1]; [3]
  activation at 1 µM: 125%
[2]
  pKi: 7.53

## Cc1onc(-c2ccc(C(F)(F)F)nc2)c1COc1cc2c(cn1)CN(C1CCOC1)CC2 (stereo not drawn) [Example 8, 6-({5-methyl-3-[6-(trifluoromethyl)pyridin-3-yl]-1,2-oxazol-4-yl}methoxy)-2-(oxolan-3-yl)-1,2,3,4-tetrahydro-2,7-naphthyridine]
[1]; [3]
  activation at 1 µM: 133%
[2]
  pKi: 7.95

## Cc1ccc(-c2noc(C)c2COc2cc3c(cn2)CN(C2CCOC2)CC3)cn1 (stereo not drawn) [Example 9, 6-{[5-methyl-3-(6-methylpyridin-3-yl)-1,2-oxazol-4-yl]methoxy}-2-(oxolan-3-yl)-1,2,3,4-tetrahydro-2,7-naphthyridine]
[1]; [3]
  activation at 1 µM: 106%
[2]
  pKi: 8.31

## Cc1ccc(-c2noc(C)c2COc2cc3c(cn2)CN(C2COC2)CC3)cn1 [Example 10, 6-{[5-methyl-3-(6-methylpyridin-3-yl)-1,2-oxazol-4-yl]methoxy}-2-(oxetan-3-yl)-1,2,3,4-tetrahydro-2,7-naphthyridine]
[1]; [3]
  activation at 1 µM: 131%
[2]
  pKi: 8.35

## Cc1onc(-c2ccc(C(F)(F)F)nc2)c1COc1cc2c(cn1)CN(C(C)CS(C)(=O)=O)CC2 (stereo not drawn) [Example 12, 2-(1-methanesulfonylpropan-2-yl)-6-({5-methyl-3-[6-(trifluoromethyl)pyridin-3-yl]-1,2-oxazol-4-yl}methoxy)-1,2,3,4-tetrahydro-2,7-naphthyridine]
[2]
  pKi: 7.55

## Cc1onc(-c2ccc(C(F)(F)F)nc2)c1COc1cc2c(nn1)CN(C)CC2 [Example 17]
[2]
  pKi: 7.75

## Cc1nnn(-c2ccc(C(F)F)nc2)c1COc1cc2c(cn1)CNCC2 [Example 23, 6-({1-[6-(difluoromethyl)pyridin-3-yl]-4-methyl-1H-1,2,3-triazol-5-yl}methoxy)-1,2,3,4-tetrahydro-2,7-naphthyridine]
[2]
  pKi: 8.14

## Cc1nnn(-c2ccc(C(F)(F)F)nc2)c1COc1cc2c(cn1)CN(C(C)C)CC2 [Example 26, 6-({4-methyl-1-[6-(trifluoromethyl)pyridin-3-yl]-1H-1,2,3-triazol-5-yl}methoxy)-2-(propan-2-yl)-1,2,3,4-tetrahydro-2,7-naphthyridine]
[2]
  pKi: 7.03

## Cc1nnn(-c2ccc(C(F)(F)F)nc2)c1COc1cc2c(cn1)CN(C)CC2 [Example 27, 2-methyl-6-({4-methyl-1-[6-(trifluoromethyl)pyridin-3-yl]-1H-1,2,3-triazol-5-yl}methoxy)-1,2,3,4-tetrahydro-2,7-naphthyridine]
[2]
  pKi: 7.20

## Cc1nnn(-c2ccc(C(F)F)nc2)c1COc1cc2c(cn1)CN(C(C)C)CC2 [Example 28, 6-({1-[6-(difluoromethyl)pyridin-3-yl]-4-methyl-1H-1,2,3-triazol-5-yl}methoxy)-2-(propan-2-yl)-1,2,3,4-tetrahydro-2,7-naphthyridine]
[2]
  pKi: 8.23

## Cc1nnn(-c2ccc(C(F)(F)F)nc2)c1COc1cc2c(cn1)CN(C1CCOCC1)CC2 [Example 35, 6-({4-methyl-1-[6-(trifluoromethyl)pyridin-3-yl]-1H-1,2,3-triazol-5-yl}methoxy)-2-(oxan-4-yl)-1,2,3,4-tetrahydro-2,7-naphthyridine]
[2]
  pKi: 7.05

## Cc1nnn(-c2ccc(C(F)(F)F)nc2)c1COc1cc2c(cn1)CN(c1cccnc1)CC2 [Example 37, 6-({4-methyl-1-[6-(trifluoromethyl)pyridin-3-yl]-1H-1,2,3-triazol-5-yl}methoxy)-2-(pyridin-3-yl)-1,2,3,4-tetrahydro-2,7-naphthyridine napadysilate salt]
[1]; [3]
  activation at 1 µM: 53%

## COc1ccc(-n2nnc(C)c2COc2cc3c(cn2)CN(C2CCOCC2)CC3)cn1 [Example 40, 6-{[1-(6-methoxypyridin-3-yl)-4-methyl-1H-1,2,3-triazol-5-yl]methoxy}-2-(oxan-4-yl)-1,2,3,4-tetrahydro-2,7-naphthyridine heminapadisylate salt]
[1]; [3]
  activation at 1 µM: 86%

## Cc1ccc(-n2nnc(C)c2COc2cc3c(cn2)CN(C2(C(C)C)COC2)CC3)cn1 [Example 42, 6-{[4-methyl-1-(6-methylpyridin-3-yl)-1H-1,2,3-triazol-5-yl]methoxyl}-2-[3-(propan-2-yl)oxetan-3-yl]-1,2,3,4-tetrahydro-2,7-naphthyridine napadisylate salt]
[1]; [3]
  activation at 1 µM: 99%

## CCC1(N2CCc3cc(OCc4c(C)nnn4-c4ccc(C)nc4)ncc3C2)COC1 [Example 43, 2-(3-ethyloxetan-3-yl)-6-{[4-methyl-1-(6-methylpyridin-3-yl)-1H-1,2,3-triazol-5-yl]methoxy}-1,2,3,4-tetrahydro-2,7-naphthyridine napadisylate salt]
[1]; [3]
  activation at 1 µM: 85%
